From patent US10888544B2, “Methods for treating Gaucher disease” (Genzyme Corporation, priority 2017, dated 2021)
Where “and” joins values, the source holds several entries; their conditions need not be identical. Identical values can stand only once. Like-named read-outs stand apart in the source and are kept apart here.

Assay: Single oral dose pharmacokinetic study of eliglustat tartrate in mild or moderate hepatic impairment and matched healthy subjects (Example 1)
Format: in vivo, human
Settings: for AUC(0-inf) / AUC(0-t) / Cmax / Vd/F / Tmax: human, 100 mg
Procedure: A multi-center, open-label, single oral dose study of eliglustat tartrate administered to mild or moderate HI and normal hepatic function (healthy) matched (by body weight and cytochrome P450 [CYP] 2D6 phenotype) subjects was carried out to study the effect of mild and moderate hepatic impairment (HI) on the pharmacokinetics (PK) of eliglustat.
Approximately 8 subjects were planned to be enrolled into each HI group (mild or moderate HI) and 8 subjects with normal hepatic function matched to impaired subjects by weight and CYP2D6 phenotype. At least 6 CYP2D6 extensive metabolizers (EMs) were to be enrolled into each impairment group, with the remaining 2 subjects enrolled according to the following preference: at least 20 subjects were to be screened for each impairment group and if identified, up to 2 CYP2D6 poor metabolizers (PMs) were enrolled. If less than 2 PMs were identified, up to 2 CYP2D6 intermediate metabolizers (IMs) were to be enrolled for a total of 8 subjects per group. If less than 2 PMs or IMs were identified, up to 2 additional EMs were to be enrolled for a total of 8 subjects per group. If 2 PMs were identified prior to screening 20 subjects, screening may have been discontinued. If an eligible PM subject was identified after satisfying the above requirements and enrolling 8 subjects for an impairment group, this subject may still have been enrolled for that impairment group.
CYP2D6 EMs and IMs were to receive a single 100-mg dose of eliglustat tartrate, while CYP2D6 PMs were to receive a single 50-mg dose of eliglustat tartrate.
For HI subjects: Male (body weight between 50.0 and 125.0 kg, inclusive) or female subjects (body weight between 40.0 and 110.0 kg, inclusive) between 18 and 79 years, inclusive, with a body mass index between 18.0 and 37 kg/m^2, inclusive; having stable chronic liver disease assessed by medical history, physical examination, and laboratory values; with moderate HI (defined as Child-Pugh score of 7 to 9, inclusive) or mild HI (defined as Child-Pugh score of 5 to 6, inclusive). For healthy subjects: Male or female subjects, between 18 and 79 years, inclusive; body weight within 15% of the body weight of matched subjects with HI, and body mass index between 18.0 and 37 kg/m^2, inclusive; healthy subjects were also matched to HI groups by CYP2D6 phenotype predicted from genotype.
A single 100-mg capsule of eliglustat tartrate (equivalent to 84 mg of eliglustat) was administered to CYP2D6 EM or IM subjects with mild or moderate HI and matching healthy subjects.
Pharmacokinetics: The following PK parameters were calculated for eliglustat plasma concentrations using noncompartmental methods: Maximum plasma concentration observed (Cmax), area under the plasma concentration versus time curve calculated using the trapezoidal method from time zero to the time corresponding to the last quantifiable concentration tlast (AUClast), time to reach Cmax(tmax), area under the plasma concentration versus time curve extrapolated to infinity (AUC), terminal half-life associated with the terminal slope λz (t1/2z), time corresponding to the last concentration above the limit of quantification (tlast), apparent total body clearance of a drug from the plasma (CL/F), and apparent volume of distribution during the terminal (λz) phase (Vz/F).
Blood samples were collected at the following timepoints to assess plasma concentrations of eliglustat: predose and 0.5, 1, 1.5, 2, 2.5, 3, 4, 6, 8, 10, 12, 24, 36, and 48 hours postdose.
Eliglustat concentrations in plasma were determined using a validated liquid chromatography-tandem mass spectrometry method with a lower limit of quantification of 0.2 ng/mL.
Eliglustat PK parameters were summarized using descriptive statistics for each population group and for each CYP2D6 phenotype. […]

[1] = CYP2D6 EM, healthy, N=7, single 100 mg eliglustat tartrate oral, plasma
[2] = CYP2D6 EM, mild HI, N=6, single 100 mg eliglustat tartrate oral, plasma
[3] = CYP2D6 EM, moderate HI, N=7, single 100 mg eliglustat tartrate oral, plasma
[4] = CYP2D6 IM, healthy, N=1, single 100 mg eliglustat tartrate oral, plasma
[5] = CYP2D6 IM, mild HI, N=2, single 100 mg eliglustat tartrate oral, plasma
[6] = CYP2D6 IM, moderate HI, N=1, single 100 mg eliglustat tartrate oral, plasma
[7] = Mild HI vs Healthy, CYP2D6 EM subjects, single 100 mg eliglustat tartrate
[8] = Moderate HI vs Healthy, CYP2D6 EM subjects, single 100 mg eliglustat tartrate

Compound: CCCCCCCC(=O)N[C@H](CN1CCCC1)[C@H](O)c1ccc2c(c1)OCCO2 [eliglustat, N-((1R,2R)-1-(2,3-dihydrobenzo[b][1,4]dioxin-6-yl)-1-hydroxy-3-(pyrrolidin-1-yl)propan-2-yl)octanamide]
- CL/F, geometric mean [1]: (1420) [40.1] L/h
- CL/F, mean ± SD [1]: 1570 ± 628 L/h
- t1/2z, geometric mean [1]: (7.03) [12.5] h
- t1/2z, mean ± SD [1]: 7.08 h and 7.08 ± 0.881 h
- tlast, median [1]: 24.00 h
- CL/F, geometric mean [2]: (1230) [72.8]^ L/h
- CL/F, mean ± SD [2]: 1980 ± 1440 L/h
- t1/2z, geometric mean [2]: (7.13) [20.1] h
- t1/2z, mean ± SD [2]: 7.25 ± 1.46 h
- tlast, median [2]: 30.00 h
- CL/F, geometric mean [3]: (275) [70.9] L/h
- CL/F, mean ± SD [3]: 416 ± 295 L/h
- t1/2z, geometric mean [3]: (10.3) [21.4]^ h
- t1/2z, mean ± SD [3]: 10.5 h and 10.5 ± 2.25 h
- tlast, median [3]: 48.00 h
- CL/F [4]: 146 L/h
- t1/2z [4]: 8.48 h
- tlast [4]: 48.00 h
- CL/F, mean [5]: 306 L/h
- t1/2z, mean [5]: 9.34 h
- tlast [5]: 48.00 h
- CL/F [6]: 406 L/h
- t1/2z [6]: 5.87 h
- tlast [6]: 24.00 h
- AUC geometric mean ratio, point estimate [7]: 1.15
- AUClast geometric mean ratio, point estimate [7]: 1.18
- CL/F geometric mean ratio, point estimate [7]: 0.87
- Cmax geometric mean ratio, point estimate [7]: 1.22
- Vz/F geometric mean ratio, point estimate [7]: 0.88
- AUC geometric mean ratio, point estimate [8]: 5.16
- AUClast geometric mean ratio, point estimate [8]: 5.35
- CL/F geometric mean ratio, point estimate [8]: 0.19
- Cmax geometric mean ratio, point estimate [8]: 2.81
- Vz/F geometric mean ratio, point estimate [8]: 0.28
- t1/2z geometric mean ratio, point estimate [8]: 1.47
- AUC(0-inf) (both sexes, plasma, oral, CYP2D6 IM, healthy, N=1, single 100 mg eliglustat tartrate oral, plasma, read-out: AUC (extrapolated to infinity)): 578 ng·h/mL
- AUC(0-inf) (both sexes, plasma, oral, CYP2D6 IM, mild HI, N=2, single 100 mg eliglustat tartrate oral, plasma, read-out: AUC (extrapolated to infinity), mean): 346 ng·h/mL
- AUC(0-t) (both sexes, plasma, oral, CYP2D6 IM, mild HI, N=2, single 100 mg eliglustat tartrate oral, plasma, read-out: AUClast, mean): 334 ng·h/mL
- Cmax (both sexes, plasma, oral, CYP2D6 IM, mild HI, N=2, single 100 mg eliglustat tartrate oral, plasma, read-out: Cmax, mean): 35.9 ng/mL
- Vd/F (both sexes, plasma, oral, CYP2D6 IM, mild HI, N=2, single 100 mg eliglustat tartrate oral, plasma, read-out: Vz/F, mean): 3910 L
- Tmax (both sexes, plasma, oral, CYP2D6 IM, mild HI, N=2, single 100 mg eliglustat tartrate oral, plasma, read-out: tmax): 2 h
- AUC(0-inf) (both sexes, plasma, oral, CYP2D6 IM, moderate HI, N=1, single 100 mg eliglustat tartrate oral, plasma, read-out: AUC (extrapolated to infinity)): 208 ng·h/mL
- AUC(0-inf) (both sexes, plasma, po, CYP2D6 EM, healthy, N=7, single 100 mg eliglustat tartrate oral, plasma, read-out: AUC (extrapolated to infinity), geometric mean): 59.5 ng·h/mL
- AUC(0-inf) (both sexes, plasma, po, CYP2D6 EM, healthy, N=7, single 100 mg eliglustat tartrate oral, plasma, read-out: AUC (extrapolated to infinity), mean ± SD): 69 ± 49.1 ng·h/mL
- AUC(0-t) (both sexes, plasma, po, CYP2D6 EM, healthy, N=7, single 100 mg eliglustat tartrate oral, plasma, read-out: AUClast, geometric mean): 54.7 ng·h/mL
- AUC(0-t) (both sexes, plasma, po, CYP2D6 EM, healthy, N=7, single 100 mg eliglustat tartrate oral, plasma, read-out: AUClast, mean ± SD): 63.9 ± 47.1 ng·h/mL
- Cmax (both sexes, plasma, po, CYP2D6 EM, healthy, N=7, single 100 mg eliglustat tartrate oral, plasma, read-out: Cmax, geometric mean): 8.81 ng/mL
- Cmax (both sexes, plasma, po, CYP2D6 EM, healthy, N=7, single 100 mg eliglustat tartrate oral, plasma, read-out: Cmax, mean ± SD): 10.4 ± 7.4 ng/mL
- Vd/F (both sexes, plasma, po, CYP2D6 EM, healthy, N=7, single 100 mg eliglustat tartrate oral, plasma, read-out: Vz/F, geometric mean): 14400 L
- Vd/F (both sexes, plasma, po, CYP2D6 EM, healthy, N=7, single 100 mg eliglustat tartrate oral, plasma, read-out: Vz/F, mean ± SD): 16000 ± 6020 L
- Tmax (both sexes, plasma, po, CYP2D6 EM, healthy, N=7, single 100 mg eliglustat tartrate oral, plasma, read-out: tmax, median): 2.5 h
- AUC(0-inf) (both sexes, plasma, po, CYP2D6 EM, mild HI, N=6, single 100 mg eliglustat tartrate oral, plasma, read-out: AUC (extrapolated to infinity), geometric mean): 68.5 ng·h/mL
- AUC(0-inf) (both sexes, plasma, po, CYP2D6 EM, mild HI, N=6, single 100 mg eliglustat tartrate oral, plasma, read-out: AUC (extrapolated to infinity), mean ± SD): 172 ± 293 ng·h/mL
- AUC(0-t) (both sexes, plasma, po, CYP2D6 EM, mild HI, N=6, single 100 mg eliglustat tartrate oral, plasma, read-out: AUClast, geometric mean): 64.3 ng·h/mL
- AUC(0-t) (both sexes, plasma, po, CYP2D6 EM, mild HI, N=6, single 100 mg eliglustat tartrate oral, plasma, read-out: AUClast, mean ± SD): 166 ± 285 ng·h/mL
- Cmax (both sexes, plasma, po, CYP2D6 EM, mild HI, N=6, single 100 mg eliglustat tartrate oral, plasma, read-out: Cmax, geometric mean): 10.7 ng/mL
- Cmax (both sexes, plasma, po, CYP2D6 EM, mild HI, N=6, single 100 mg eliglustat tartrate oral, plasma, read-out: Cmax, mean ± SD): 22.4 ± 30.2 ng/mL
- Vd/F (both sexes, plasma, po, CYP2D6 EM, mild HI, N=6, single 100 mg eliglustat tartrate oral, plasma, read-out: Vz/F, geometric mean): 12700 L
- Vd/F (both sexes, plasma, po, CYP2D6 EM, mild HI, N=6, single 100 mg eliglustat tartrate oral, plasma, read-out: Vz/F, mean ± SD): 20000 ± 15600 L
- Tmax (both sexes, plasma, po, CYP2D6 EM, mild HI, N=6, single 100 mg eliglustat tartrate oral, plasma, read-out: tmax, median): 1.75 h
- AUC(0-inf) (both sexes, plasma, po, CYP2D6 EM, moderate HI, N=7, single 100 mg eliglustat tartrate oral, plasma, read-out: AUC (extrapolated to infinity), geometric mean): 307 ng·h/mL
- AUC(0-inf) (both sexes, plasma, po, CYP2D6 EM, moderate HI, N=7, single 100 mg eliglustat tartrate oral, plasma, read-out: AUC (extrapolated to infinity), mean ± SD): 575 ± 696 ng·h/mL
- AUC(0-t) (both sexes, plasma, po, CYP2D6 EM, moderate HI, N=7, single 100 mg eliglustat tartrate oral, plasma, read-out: AUClast, geometric mean): 293 ng·h/mL
- AUC(0-t) (both sexes, plasma, po, CYP2D6 EM, moderate HI, N=7, single 100 mg eliglustat tartrate oral, plasma, read-out: AUClast, mean ± SD): 536 ± 642 ng·h/mL
- Cmax (both sexes, plasma, po, CYP2D6 EM, moderate HI, N=7, single 100 mg eliglustat tartrate oral, plasma, read-out: Cmax, geometric mean): 24.8 ng/mL
- Cmax (both sexes, plasma, po, CYP2D6 EM, moderate HI, N=7, single 100 mg eliglustat tartrate oral, plasma, read-out: Cmax, mean ± SD): 39.5 ± 43.4 ng/mL
- Vd/F (both sexes, plasma, po, CYP2D6 EM, moderate HI, N=7, single 100 mg eliglustat tartrate oral, plasma, read-out: Vz/F, geometric mean): 4090 L
- Vd/F (both sexes, plasma, po, CYP2D6 EM, moderate HI, N=7, single 100 mg eliglustat tartrate oral, plasma, read-out: Vz/F, mean ± SD): 5840 ± 4130 L
- Tmax (both sexes, plasma, po, CYP2D6 EM, moderate HI, N=7, single 100 mg eliglustat tartrate oral, plasma, read-out: tmax, median): 4 h
- AUC(0-t) (plasma, oral, CYP2D6 IM, healthy, N=1, single 100 mg eliglustat tartrate oral, plasma, read-out: AUClast): 568 ng·h/mL
- Cmax (plasma, oral, CYP2D6 IM, healthy, N=1, single 100 mg eliglustat tartrate oral, plasma, read-out: Cmax): 75.9 ng/mL
- Vd/F (plasma, oral, CYP2D6 IM, healthy, N=1, single 100 mg eliglustat tartrate oral, plasma, read-out: Vz/F): 1790 L
- Tmax (plasma, oral, CYP2D6 IM, healthy, N=1, single 100 mg eliglustat tartrate oral, plasma, read-out: tmax): 2.5 h
- AUC(0-t) (plasma, oral, CYP2D6 IM, moderate HI, N=1, single 100 mg eliglustat tartrate oral, plasma, read-out: AUClast): 197 ng·h/mL
- Cmax (plasma, oral, CYP2D6 IM, moderate HI, N=1, single 100 mg eliglustat tartrate oral, plasma, read-out: Cmax): 35.6 ng/mL
- Vd/F (plasma, oral, CYP2D6 IM, moderate HI, N=1, single 100 mg eliglustat tartrate oral, plasma, read-out: Vz/F): 3430 L
- Tmax (plasma, oral, CYP2D6 IM, moderate HI, N=1, single 100 mg eliglustat tartrate oral, plasma, read-out: tmax): 1.52 h
